The subject of test [1] is HLA-DRB1 in WM793 cells. The test is described as follows: Immunofluorescent subcellular localization of HLA-DRB1. To be noted: vs. vehicle (DMSO). It is filed as cell-based, human. The text has this:
FIGS. 18A-18F show N-linked fucosylation of HLA-DRB1 at N48 regulates its cell surface localization and is required for tumor suppression and increased TIL abundance. (a) (upper) Amino acid sequence alignments showing conservation of predicted N- and O-linked fucosylation sites in human HLA-DRB1 (N48 and T129) and mouse H2EB1 (N46 and T147). Structural modeling of the HLA-DRB1:HLA-DM (lower left) and CD4:HLA-DRB1:TCR (lower right) complexes. Potential glycosylation sites, N48 and T129, of HLA-DR1 beta chain are shown as sticks. CD4 (cyan), HLA-DRB1 (yellow), antigen peptide (magenta), and TCR (green)(lower right). (b) HLA-DRB1 peptide fragment identified by nano-LC/MS to be fucosylated on N48, with predicted HexNAc(4)Hex(3)Fuc(1) glycan structure shown above. (c) Lectin pull down (LPD) and IB analyses of EV and V5-tagged wild-type HLA-DRB1 (WT)-, HLA-DRB1 N48G (N48G)-, and HLA-DRB1 T129A (T129A)-expressing WM793 cells. (d) DMSO- or fucosyltransferase inhibitor (FUTi)-treated WM793 cells immunofluorescently stained for endogenous HLA-DRB1, KDEL (ER marker), and DAPI (20× magnification). […]

For test [2], the system named is SW1 tumors. The test is described as follows: Immunodepletion mouse model (CD4+ or CD8+ T cell depletion), SW1. It is filed as in vivo, C3H/HeN mice. The text has this:
Total TILs were gated first to single cells (based on forward scatter height vs width, followed by side scatter height vs. width). Live cells were gated from the Zombie negative population from the population above. TILs were gated based on splenocyte size from a control spleen. Individual immune subpopulations were sub-gated from the total TIL population using the following staining criteria: CD3+ for CD3+ T cells; CD3+/CD4+/CD8− for CD4+T cells; CD3+/CD4−/CD8+ for CD8+ T cells, CD11c+/CD11b+ for DCs; either NK1.1 (for C57/BL6 mice) or DX5 (for C3H/HeJ) for NK cells; CD11b+/GR1+ for MDSC-like cells; and F4/80+ for macrophages. Single-cell suspensions from tumor and spleen tissue were stained with Live/Dead Zombie NIR (Biolegend, (San Diego, CA)) at 1:1,000 in PBS for 20 min. Cell suspensions were spun down and stained with the following with antibodies at 0.5 μg/ml per antibody: APC anti-mouse CD3, Pacific Blue anti-mouse CD4, BV785 anti-mouse CD8, PerCP anti-mouse CD25, FITC anti-mouse F4/80, PeCy7 anti-mouse CD11c, PE anti-mouse NK1.1 or PE anti-mouse DX5, and PerCP-Cy5.5 anti-mouse CD11 b. After staining, the cells were washed and fixed (2% formaldehyde), followed by another wash and flow cytometric analysis. The compensation controls were prepared using 0.5 μg/mL of each antibody with UltraComp eBeads, (ThermoFisher Scientific (Waltham, MA)). All samples were subject to flow cytometric profiling using a LSR Flow Cytometer (BD Biosciences (San Jose, CA)) and analysis as indicated using FlowJo software (BD Biosciences (San Jose, CA)).
All animals were housed at the Vincent A. Stabile Research building animal facility at H. Lee Moffitt Cancer Center & Research Institute, which is fully accredited by the Association for Assessment and Accreditation of Laboratory Animal Care International (AAALAC, #434), and are managed in accordance with the Guide for the Care and Use of Laboratory Animals (“The Guide”), the Animal Welfare Regulations Title 9 Code of Federal Regulations Subchapter A, “Animal Welfare”, Parts 1-3 (AWR), the Public Health Service Policy on Humane Care and Use of Laboratory Animals (PHS Policy), and by the USF Institutional Animal Care and Use Committee's Principles and Procedures of Animal Care and Use (IACUC Principles). The experiments and protocols detailed in this study received institutional approval by the Moffitt IACUC (RIS00001625). Four-to-six-week-old female C3H/HeN and male C57BL6 mice were purchased from Charles Rivers Laboratories for the indicated experiments. Four-to-six-week-old male NSG mice from the Lau laboratory breeding colony were used for the indicated experiments. […] Mouse tumor volumes were measured using length, width and depth divided by 2. […]

Bounds are passed on as bounds.

In the case of `CC(=O)OC1O[C@@H](C)[C@@H](OC(C)=O)[C@@H](OC(C)=O)[C@@H]1F` (some centres unmarked) [FUTi, 2F-peracteyl-fucose, reference compound], the “subcellular localization of HLA-DRB1” value in test [1] is recorded as “dimmer, more central, endoplasmic reticulum-co-localization of HLA-DRB1”.
Consider `C[C@H](O)[C@@H](O)[C@@H](O)[C@H](O)C=O` [L-fucose], for which the “reduction of tumor growth” value in test [2] (CD4+T cell depletion) was “completely abrogated”; in test [2] (CD8+T cell-depleted mice) it was above 50%; in test [2] (control (PBS-injected) mice), above 50%. The “L-fuc-induced increases in total itICs (incl. NK, DC, CD8+T cells)” value in test [2] (CD4+T cell-depletion) is “blocked”.

Values taken from patent publication US20240197761A1, “FUCOSYLATION AND IMMUNE MODULATION IN CANCER” (H. LEE MOFFITT CANCER CENTER AND RESEARCH INSTITUTE, INC., priority 2021, published 2024).
